Patent publication US20250276983A1, “COMPOUNDS AND METHODS FOR MODULATING HER2” (IAMBIC THERAPEUTICS, INC., priority 2022, published 2025)
Where two headings read alike, the source gives them in different places.

Key:
Type in all cases: cell-based
BaF3_EGFRWT cells = experiment: Cell growth inhibition assay, BaF3_EGFRWT; conditions: 72 h, 80 ng/mL recombinant human EGF, 3 days treatment, CellTiterGlo 2.0, read-out: EGFR WT IC50 (nM), cell growth inhibition
BaF3_HER2YVMA cells = experiment: Cell growth inhibition assay, BaF3_HER2YVMA; conditions: BaF3_HER2YVMA cells, 3 days treatment, CellTiterGlo 2.0, read-out: HER2-YVMA IC50 (nM), cell growth inhibition
BaF3_HER2WT cells = experiment: Cell growth inhibition assay, BaF3_HER2WT; conditions: 72 h, 3 days treatment, CellTiterGlo 2.0, read-out: HER2 WT IC50 (nM), cell growth inhibition

Structure (SMILES)	IC50 (BaF3_EGFRWT cells) [nM]	IC50 (BaF3_HER2YVMA cells; 72 h) [nM]	IC50 (BaF3_HER2WT cells) [nM]	IC50 (BaF3_HER2YVMA cells) [nM]
COC/C=C/C(=O)N1CC(c2ccn3ncnc(Nc4ccc(Oc5ccn6ncnc6c5)c(C)c4)c23)C1 [Example 40, (E)-1-(3-(4-((4-([1,2,4]triazolo[1,5-a]pyridin-7-yloxy)-3-methylphenyl)amino)pyrrolo[2,1-f][1,2,4]triazin-5-yl)azetidin-1-yl)-4-methoxybut-2-en-1-one]	1500 to 5000	200 to 500	200 to 500	
Cc1cc(Nc2ncnn3ccc(N4CCN(C(=O)/C=C/CN(C)C)CC4=O)c23)ccc1Oc1ccn2ncnc2c1 [Example 54, (E)-1-(4-((4-([1,2,4]triazolo[1,5-a]pyridin-7-yloxy)-3-methylphenyl)amino)pyrrolo[2,1-f][1,2,4]triazin-5-yl)-4-(4-(dimethylamino)but-2-enoyl)piperazin-2-one]	1500 to 5000	1500 to 5000	500 to 1500	
C#CCN(C)C/C=C/C(=O)N1CCC(c2ccn3ncnc(Nc4ccc(Oc5ccn6ncnc6c5)c(C)c4)c23)CC1 [Example 59, (E)-1-(4-(4-((4-([1,2,4]triazolo[1,5-a]pyridin-7-yloxy)-3-methylphenyl)amino)pyrrolo[2,1-f][1,2,4]triazin-5-yl)piperidin-1-yl)-4-(methyl(prop-2-yn-1-yl)amino)but-2-en-1-one]	1500 to 5000	200 to 500	< 200	
Cc1cc(Nc2ncnn3ccc(C4CN(C(=O)/C=C/CN5CCC(F)(F)C5)C4)c23)ccc1Oc1ccn2ncnc2c1 [Example 84, (E)-1-(3-(4-((4-([1,2,4]triazolo[1,5-a]pyridin-7-yloxy)-3-methylphenyl)amino)pyrrolo[2,1-f][1,2,4]triazin-5-yl)azetidin-1-yl)-4-(3,3-difluoropyrrolidin-1-yl)but-2-en-1-one]	1500 to 5000	200 to 500	< 200	
C=C(CN(C)C)C(=O)N1C2CCC1CC(c1ccn3ncnc(Nc4ccc(Oc5ccn6ncnc6c5)c(C)c4)c13)C2 (single isomer, unassigned) [Examples 126 and 127, first eluting isomer, 1-(3-(4-((4-([1,2,4]triazolo[1,5-a]pyridin-7-yloxy)-3-methylphenyl)amino)pyrrolo[2,1-f][1,2,4]triazin-5-yl)-8-azabicyclo[3.2.1]octan-8-yl)-2-((dimethylamino)methyl)prop-2-en-1-one]	1500 to 5000		< 200	200 to 500
Cc1cc(Nc2ncnn3ccc(N4C5CCC4CN(C(=O)/C=C/CN(C)C)C5)c23)ccc1Oc1ccn2ncnc2c1 [Example 45, (E)-1-(8-(4-((4-([1,2,4]triazolo[1,5-a]pyridin-7-yloxy)-3-methylphenyl)amino)pyrrolo[2,1-f][1,2,4]triazin-5-yl)-3,8-diazabicyclo[3.2.1]octan-3-yl)-4-(dimethylamino)but-2-en-1-one]	1500 to 5000	< 200	< 200	
COC1(c2ccn3ncnc(Nc4ccc(Oc5ccn6ncnc6c5)c(C)c4)c23)CCN(C(=O)/C=C/CN(C)C)CC1 [Example 52, (E)-1-(4-(4-((4-([1,2,4]triazolo[1,5-a]pyridin-7-yloxy)-3-methylphenyl)amino)pyrrolo[2,1-f][1,2,4]triazin-5-yl)-4-methoxypiperidin-1-yl)-4-(dimethylamino)but-2-en-1-one]	1500 to 5000	500 to 1500	200 to 500	
CN(C)C/C=C/C(=O)N1CC(c2ccn3ncnc(Nc4cnc(Oc5cccc(C(F)(F)F)c5)c(Cl)c4)c23)C1 [Example 90, (E)-1-(3-(4-((5-chloro-6-(3-(trifluoromethyl)phenoxy)pyridin-3-yl)amino)pyrrolo[2,1-f][1,2,4]triazin-5-yl)azetidin-1-yl)-4-(dimethylamino)but-2-en-1-one]	1500 to 5000	1500 to 5000	1500 to 5000	
Cc1cc(Nc2ncnn3ccc(N4CCCN(C(=O)/C=C/CN5CCOCC5)CC4)c23)ccc1Oc1ccn2ncnc2c1 [Example 80, (E)-1-(4-(4-((4-([1,2,4]triazolo[1,5-a]pyridin-7-yloxy)-3-methylphenyl)amino)pyrrolo[2,1-f][1,2,4]triazin-5-yl)-1,4-diazepan-1-yl)-4-morpholinobut-2-en-1-one]	1500 to 5000	1500 to 5000	< 200	

Further lines, with some results ahead:

IC50 (BaF3_EGFRWT cells) [nM]	IC50 (BaF3_HER2YVMA cells; 72 h) [nM]	IC50 (BaF3_HER2WT cells) [nM]	Structure (SMILES)	IC50 (BaF3_HER2YVMA cells) [nM]
1500 to 5000	1500 to 5000	1500 to 5000	Cc1cc(Nc2ncnn3ccc(C4(F)CCN(C(=O)/C=C/CN(C)C)CC4)c23)ccc1Oc1ccn2ncnc2c1 [Example 175, (E)-1-(4-(4-((4-([1,2,4]triazolo[1,5-a]pyridin-7-yloxy)-3-methylphenyl)amino)pyrrolo[2,1-f][1,2,4]triazin-5-yl)-4-fluoropiperidin-1-yl)-4-(dimethylamino)but-2-en-1-one]	
1500 to 5000	< 200	< 200	Cc1cc(Nc2ncnn3ccc(C4CCN(C(=O)/C=C/CN5CCC(F)C5)CC4)c23)ccc1Oc1ccn2ncnc2c1 (stereo not drawn) [Example 164, (E)-1-(4-(4-((4-([1,2,4]triazolo[1,5-a]pyridin-7-yloxy)-3-methylphenyl)amino)pyrrolo[2,1-f][1,2,4]triazin-5-yl)piperidin-1-yl)-4-(3-fluoropyrrolidin-1-yl)but-2-en-1-one]	
1500 to 5000	< 200	< 200	Cc1cc(Nc2ncnn3ccc(C4CN(C(=O)/C=C/CN5CC(F)C5)C4)c23)ccc1Oc1ccc2c(c1)ncn2C [Example 161, (E)-4-(3-fluoroazetidin-1-yl)-1-(3-(4-((3-methyl-4-((1-methyl-1H-benzo[d]imidazol-5-yl)oxy)phenyl)amino)pyrrolo[2,1-f][1,2,4]triazin-5-yl)azetidin-1-yl)but-2-en-1-one]	
1500 to 5000	< 200	< 200	C=CC(=O)N1CCCC(c2ccn3ncnc(Nc4ccc(Oc5ccn6ncnc6c5)c(C)c4)c23)CC1 (single isomer, unassigned) [Examples 111 and 112, first eluting isomer, 1-(4-(4-((4-([1,2,4]triazolo[1,5-a]pyridin-7-yloxy)-3-methylphenyl)amino)pyrrolo-[2,1-f][1,2,4]triazin-5-yl)azepan-1-yl)prop-2-en-1-one]	
1500 to 5000	< 200	< 200	Cc1cc(Nc2ncnn3ccc(C4CN(C(=O)/C=C/C56CCCN5CCC6)C4)c23)ccc1Oc1ccn2ncnc2c1 [Example 159, (E)-1-(3-(4-((4-([1,2,4]triazolo[1,5-a]pyridin-7-yloxy)-3-methylphenyl)amino)pyrrolo[2,1-f][1,2,4]triazin-5-yl)azetidin-1-yl)-3-(tetrahydro-1H-pyrrolizin-7a(5H)-yl)prop-2-en-1-one]	
1500 to 5000	< 200	< 200	Cc1cc(Nc2ncnn3ccc(C4CCN(C(=O)/C=C/CN5CC6COCC6C5)CC4)c23)ccc1Oc1ccn2ncnc2c1 (stereo not drawn) [Example 119, E-1-(4-(4-((4-([1,2,4]triazolo[1,5-a]-208-midazol-7-yloxy)-3-methylphenyl)amino)pyrrolo[2,1-f][1,2,4]triazin-5-yl)piperidin-1-yl)-4-(tetrahydro-1H-furo[3,4-c]pyrrol-5(3H)-yl)but-2-en-1-one]	
